The record followed here is patent US9567345B2, “Pharmaceutically active pyrazolo-triazine derivatives” (LEAD DISCOVERY CENTER GMBH, priority 2012, dated 2017).

The target in one test is CDK7/CycH/Mat1 (Homo sapiens, UniProt P50613). Put plainly: CDK7 Enzymatic Activity Assay (Lance Kinase Activity Assay, FRET). The format is biochemical. The method, then:
(§1) This protocol describes how the Lance Kinase Activity Assay was performed to determine IC50 values of compounds of general formula (I) against CDK/Cyclin complexes. The principle behind this enzymatic assay is based upon the phosphorylation of the Ulight-Peptide Substrat. It is detected by using a specific EU-labeled anti-phospho peptide antibody.
(§2) Binding of an inhibitor to the kinase prevents phosphorylation of the Ulight-MBP Substrat, resulting in a loss of FRET.
CDK7 Enzymatic Activity Assay
(§3) The compounds of general formula (I) exemplary summarized in Table 1 were diluted from a 10 mM DMSO stock solution 1:10 in a total volume of 15 μl DMSO. This compound predilution was then serial diluted 1:3 over 8 steps in DMSO and briefly spun down. Each compound solution was now diluted 1:20 in Enzymatic Buffer (HEPES: 50 mM, pH: 7.5; MgCl2: 10 mM; EGTA: 1 mM; DTT: 2 mM; Tween-20: 0.01%), mixed thoroughly and spun down.
(§4) For positive controls, 2 μl of DMSO working solution were mixed with 6 μl CDK7/CycH/Mat1/substrate working solution and 2 μl ATP working solution. Positive and negative controls were calculated from at least 8 different wells. The 384 well plates were mixed in a Teleshaker plate mixer (Beckman Coulter, Brea, Calif., USA) at 2000 rpm for 40 sec, and incubated for 1 h at room temperature before addition of 10 μl LANCE Detection Buffer (1×; EDTA: […]; Eu-Anti-P-MBP: 4 nM) per well. Plates were mixed in a Teleshaker plate mixer (Beckman Coulter, Brea, Calif., USA) at 2000 rpm for 40 sec, followed by incubation with Detection Buffer for 1 h, and reading. […] IC50 values were determined from the sigmoidal dose response curves with the software Quattro Workflow (Quattro GmbH, Munich, Germany).

A further test has as its target CDK9/Cyclin T1 (Homo sapiens, UniProt P50750). Put plainly: CDK9 Enzymatic Activity Assay (Lance Kinase Activity Assay, FRET). The format is biochemical. As to conditions: Table 5B, class symbols per IC50 [nM] ranges of b581; read-out: CDK9: Selectivity of CDK7 inhibition over CDK9 inhibition. The method, then: as §1, §2
CDK9 Enzymatic Activity Assay
as §3
as §4, with “CDK9/cyclin T1/substrate” for “CDK7/CycH/Mat1/substrate”

Where [1] appears, read: CDK7/CycH/Mat1, 25 μM ATP final, class ranges, read-out: CDK7: IC50 [nM] for CDK7 inhibition.

Where two headings read alike, the source gives them in different places.

Sequence of CDK7/CycH/Mat1 (P50613 whole entry): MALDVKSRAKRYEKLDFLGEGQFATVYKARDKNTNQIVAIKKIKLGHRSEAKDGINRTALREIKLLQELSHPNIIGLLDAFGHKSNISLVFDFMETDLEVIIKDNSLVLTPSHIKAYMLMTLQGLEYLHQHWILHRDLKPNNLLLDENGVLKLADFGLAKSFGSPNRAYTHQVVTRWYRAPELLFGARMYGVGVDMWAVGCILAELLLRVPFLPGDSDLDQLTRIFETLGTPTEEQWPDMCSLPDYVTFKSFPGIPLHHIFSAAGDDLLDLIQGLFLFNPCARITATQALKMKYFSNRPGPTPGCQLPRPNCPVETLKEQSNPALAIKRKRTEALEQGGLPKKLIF
Sequence of CDK9/Cyclin T1 (P50750 whole entry): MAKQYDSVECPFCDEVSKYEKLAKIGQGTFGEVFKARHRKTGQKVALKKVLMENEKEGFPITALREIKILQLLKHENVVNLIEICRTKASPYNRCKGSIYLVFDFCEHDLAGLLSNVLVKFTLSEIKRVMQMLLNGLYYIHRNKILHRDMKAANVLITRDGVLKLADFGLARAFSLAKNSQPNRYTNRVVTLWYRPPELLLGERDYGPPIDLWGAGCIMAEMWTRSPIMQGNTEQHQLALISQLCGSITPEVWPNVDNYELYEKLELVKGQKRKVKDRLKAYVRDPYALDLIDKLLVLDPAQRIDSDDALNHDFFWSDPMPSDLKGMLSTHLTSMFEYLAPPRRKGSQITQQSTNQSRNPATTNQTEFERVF
Sequence of CDK9/Cyclin T1 (O60563 whole entry partner): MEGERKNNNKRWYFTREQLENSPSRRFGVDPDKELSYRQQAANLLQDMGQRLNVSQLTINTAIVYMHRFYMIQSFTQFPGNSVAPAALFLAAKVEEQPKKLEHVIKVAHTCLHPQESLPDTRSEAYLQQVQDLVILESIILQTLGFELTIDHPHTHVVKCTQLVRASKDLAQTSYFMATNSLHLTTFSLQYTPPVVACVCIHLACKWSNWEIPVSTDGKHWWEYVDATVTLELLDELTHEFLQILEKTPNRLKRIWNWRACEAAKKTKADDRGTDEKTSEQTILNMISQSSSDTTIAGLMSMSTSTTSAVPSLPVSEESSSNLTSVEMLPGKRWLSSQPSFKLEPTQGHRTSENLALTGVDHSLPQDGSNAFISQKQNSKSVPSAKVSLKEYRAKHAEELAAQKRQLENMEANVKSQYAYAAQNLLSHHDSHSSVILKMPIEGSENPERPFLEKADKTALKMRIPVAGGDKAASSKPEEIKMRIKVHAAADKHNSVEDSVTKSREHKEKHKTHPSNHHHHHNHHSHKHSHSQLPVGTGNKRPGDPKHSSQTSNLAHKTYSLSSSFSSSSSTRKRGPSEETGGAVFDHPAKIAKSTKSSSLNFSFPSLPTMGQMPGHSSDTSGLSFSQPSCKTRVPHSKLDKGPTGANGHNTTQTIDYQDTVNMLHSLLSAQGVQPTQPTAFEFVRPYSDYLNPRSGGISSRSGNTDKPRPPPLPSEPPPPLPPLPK

As for `CC(C)c1cnn2c(NCc3ccccc3-n3cccn3)nc(OC3CC4(CNC4)C3)nc12` [(VII-04), N-(2-(1H-pyrazol-1-yl)benzyl)-2-(2-azaspiro[3.3]heptan-6-yloxy)-8-isopropylpyrazolo[1,5-a][1,3,5]triazin-4-amine], the IC50 on CDK7/CycH/Mat1 (setting [1]) was under 5 nM.

Turning to `COc1ccccc1[C@H](C)Nc1nc(O[C@@H]2CCCNC2)nc2c(C(C)C)cnn12` [(VII-10), 8-isopropyl-N-((S)-1-(2-methoxyphenyl)ethyl)-2-((R)-piperidin-3-yloxy)pyrazolo[1,5-a][1,3,5]triazin-4-amine], the figures for the IC50 at CDK9/Cyclin T1 and on CDK7/CycH/Mat1 (setting [1]) were 500 to 2500 nM and under 5 nM, respectively.

For `COc1ccccc1[C@H](C)Nc1nc(OC2CCNCC2)nc2c(C(C)C)cnn12` [(VII-15), (S)-8-isopropyl-N-(1-(2-methoxyphenyl)ethyl)-2-(piperidin-4-yloxy)pyrazolo[1,5-a][1,3,5]triazin-4-amine], the IC50 is over 2500 nM at CDK9/Cyclin T1 and under 5 nM on CDK7/CycH/Mat1 (setting [1]).

For `CC(C)Oc1ccccc1CNc1nc(OC2CCNCC2)nc2c(C(C)C)cnn12` [(VII-17), N-(2-isopropoxybenzyl)-8-isopropyl-2-(piperidin-4-yloxy)pyrazolo[1,5-a][1,3,5]triazin-4-amine], the values for the IC50 on CDK9/Cyclin T1 and at CDK7/CycH/Mat1 (setting [1]) were over 2500 nM and under 5 nM, respectively.

As to `CC(C)c1cnn2c(NCc3ccccc3-n3ccnc3)nc(OC3CCNCC3)nc12` [(VII-19), N-(2-(1H-imidazol-1-yl)benzyl)-8-isopropyl-2-(piperidin-4-yloxy)pyrazolo[1,5-a][1,3,5]triazin-4-amine], the IC50 was 500 to 2500 nM on CDK9/Cyclin T1 and under 5 nM on CDK7/CycH/Mat1 (setting [1]).

For `CC(C)c1cnn2c(NCc3ccccc3-n3cncn3)nc(O[C@@H]3CCCNC3)nc12` [(VII-20), (R)-N-(2-(1H-1,2,4-triazol-1-yl)benzyl)-8-isopropyl-2-(piperidin-3-yloxy)pyrazolo[1,5-a][1,3,5]triazin-4-amine], the IC50 was 500 to 2500 nM at CDK9/Cyclin T1 and under 5 nM at CDK7/CycH/Mat1 (setting [1]).

On to `Cc1nccn1-c1ccccc1CNc1nc(OC2CCNCC2)nc2c(C(C)C)cnn12` [(VII-24), 8-isopropyl-N-(2-(2-methyl-1H-imidazol-1-yl)benzyl)-2-(piperidin-4-yloxy)pyrazolo[1,5-a][1,3,5]triazin-4-amine], for which the IC50 at CDK9/Cyclin T1 was over 2500 nM; at CDK7/CycH/Mat1 (setting [1]) it was under 5 nM.

Consider `Cc1nccn1-c1ccccc1CNc1nc(O[C@@H]2CCNC2)nc2c(C(C)C)cnn12` [(VII-25), (R)-8-isopropyl-N-(2-(2-methyl-1H-imidazol-1-yl)benzyl)-2-(pyrrolidin-3-yloxy)pyrazolo[1,5-a][1,3,5]triazin-4-amine], for which the IC50 was over 2500 nM on CDK9/Cyclin T1 and under 5 nM at CDK7/CycH/Mat1 (setting [1]).

As to `CC(C)c1cnn2c(N[C@@H](C)c3ccccc3Cl)nc(O[C@@H]3CCCNC3)nc12` [(VII-28), N-((S)-1-(2-chlorophenyl)ethyl)-8-isopropyl-2-((R)-piperidin-3-yloxy)pyrazolo[1,5-a][1,3,5]triazin-4-amine], the IC50 on CDK9/Cyclin T1 is over 2500 nM; at CDK7/CycH/Mat1 (setting [1]), under 5 nM.

As to `CC(C)c1cnn2c(NCc3ccccc3N3CCC3=O)nc(O[C@@H]3CCCNC3)nc12` [(VII-40), (R)-1-(2-(((8-isopropyl-2-(piperidin-3-yloxy)pyrazolo[1,5-a][1,3,5]triazin-4-yl)amino)methyl)phenyl)azetidin-2-one], the IC50 on CDK9/Cyclin T1 was over 2500 nM; at CDK7/CycH/Mat1 (setting [1]), over 25 nM.

Turning to `CC(C)c1cnn2c(NCc3ccccc3-c3cccnc3)nc(OC3CCN(C)CC3)nc12` [(VII-45), 8-isopropyl-2-((1-methylpiperidin-4-yl)oxy)-N-(2-(pyridin-3-yl)benzyl)pyrazolo[1,5-a][1,3,5]triazin-4-amine], the values for the IC50 at CDK9/Cyclin T1 and at CDK7/CycH/Mat1 (setting [1]) were over 2500 nM and under 5 nM, respectively.

In the case of `CC(C)c1cnn2c(NCc3ccccc3-c3cccnc3)nc(O[C@@H]3CCCNC3)nc12` [(VII-46), (R)-8-isopropyl-2-(piperidin-3-yloxy)-N-(2-(pyridin-3-yl)benzyl)pyrazolo[1,5-a][1,3,5]triazin-4-amine], the IC50 at CDK9/Cyclin T1 is over 2500 nM; on CDK7/CycH/Mat1 (setting [1]), under 5 nM.

As for `CC(C)c1cnn2c(NCc3ccccc3Oc3ccccc3)nc(OC3CCN(C)CC3)nc12` [(VII-47), 8-isopropyl-2-((1-methylpiperidin-4-yl)oxy)-N-(2-phenoxybenzyl)pyrazolo[1,5-a][1,3,5]triazin-4-amine], at CDK7/CycH/Mat1 (setting [1]), the IC50 was under 5 nM.

Regarding `CC(C)c1cnn2c(NCc3ccccc3Oc3ccccc3)nc(O[C@@H]3CCCNC3)nc12` [(VII-48), (R)-8-isopropyl-N-(2-phenoxybenzyl)-2-(piperidin-3-yloxy)pyrazolo[1,5-a][1,3,5]triazin-4-amine], the IC50 at CDK7/CycH/Mat1 (setting [1]) was under 5 nM.

Turning to `CC(C)c1cnn2c(NCc3ccccc3-c3ncco3)nc(O[C@@H]3CCCNC3)nc12` [(VII-49), (R)-8-isopropyl-N-(2-(oxazol-2-yl)benzyl)-2-(piperidin-3-yloxy)pyrazolo[1,5-a][1,3,5]triazin-4-amine], at CDK7/CycH/Mat1 (setting [1]), the IC50 was under 5 nM.

As to `CC(C)c1cnn2c(NCc3ccccc3-c3ccco3)nc(O[C@@H]3CCCNC3)nc12` [(VII-50), (R)-N-(2-(furan-2-yl)benzyl)-8-isopropyl-2-(piperidin-3-yloxy)pyrazolo[1,5-a][1,3,5]triazin-4-amine], the IC50 on CDK7/CycH/Mat1 (setting [1]) was under 5 nM.

On to `CC(=O)Nc1ccccc1CNc1nc(O[C@@H]2CCCNC2)nc2c(C(C)C)cnn12` [(VII-51), (R)-N-(2-(((8-isopropyl-2-(piperidin-3-yloxy)pyrazolo[1,5-a][1,3,5]triazin-4-yl)amino)methyl)phenyl)acetamide], for which the IC50 at CDK7/CycH/Mat1 (setting [1]) was under 5 nM; at CDK7/CycH/Mat1 (Table 7, read-out: IC50 CDK7), under 5 nM.

Regarding `Cc1ccccc1CNc1nc(OC2CCN(C)CC2)nc2c(C(C)C)cnn12` [(VII-53), 8-isopropyl-N-(2-methylbenzyl)-2-((1-methylpiperidin-4-yl)oxy)pyrazolo[1,5-a][1,3,5]triazin-4-amine], the IC50 fell in the range of 50 to 500 nM on CDK9/Cyclin T1 and 5 to 10 nM on CDK7/CycH/Mat1 (setting [1]).

`CC(C)c1cnn2c(NCc3ccccc3N(C)C)nc(OC3CCN(C)CC3)nc12` [(VII-54), N-(2-(dimethylamino)benzyl)-8-isopropyl-2-((1-methylpiperidin-4-yl)oxy)pyrazolo[1,5-a][1,3,5]triazin-4-amine]: the IC50 fell in the range of 50 to 500 nM at CDK9/Cyclin T1 and 5 to 10 nM at CDK7/CycH/Mat1 (setting [1]).

`CC(C)c1cnn2c(NCc3ccccc3C(F)(F)F)nc(OC3CCN(C)CC3)nc12` [(VII-058), 8-isopropyl-2-((1-methylpiperidin-4-yl)oxy)-N-(2-(trifluoromethyl)benzyl)pyrazolo[1,5-a][1,3,5]triazin-4-amine]: the IC50 on CDK7/CycH/Mat1 (setting [1]) is over 25 nM.

As for `CC(C)c1cnn2c(NCc3ccccc3NC(=O)Nc3ccccc3)nc(O[C@@H]3CCCNC3)nc12` [(VII-111), (R)-1-(2-(((8-isopropyl-2-(piperidin-3-yloxy)pyrazolo[1,5-a][1,3,5]triazin-4-yl)amino)methyl)phenyl)-3-phenylurea], the IC50 on CDK7/CycH/Mat1 (setting [1]) lay in the range of 10 to 25 nM.

In the case of `CC(C)c1cnn2c(NCc3ccccc3-n3cccn3)nc(OC3CNC3)nc12` [(VII-141), N-(2-(1H-pyrazol-1-yl)benzyl)-2-(azetidin-3-yloxy)-8-isopropylpyrazolo[1,5-a][1,3,5]triazin-4-amine], the IC50 on CDK7/CycH/Mat1 (setting [1]) is 10 to 25 nM.

Consider `CC(C)c1cnn2c(NCc3ccccc3)nc(OC3CCN(C)CC3)nc12` [C-I, reference compound], for which the IC50 at CDK7/CycH/Mat1 (Table 6, read-out: IC50 CDK7) is under 5 nM.

With `CC(C)c1cnn2c(NCc3ccccc3)nc(O[C@@H]3CCCNC3)nc12` [C-II, reference compound], the IC50 on CDK7/CycH/Mat1 (Table 6, read-out: IC50 CDK7) was under 5 nM.
